# From patent US4598084A, “Optically active derivatives of N-arylated oxazolidine-2-one, the process for preparing same and their application in therapeutics” (Delalande S.A., priority 1982, dated 1986)
# Like-named read-outs stand apart in the source and are kept apart here.
# Legend:
# [1] = biological target: T1, type A monoamine oxidase (MAO.A) (Rattus norvegicus, UniProt P21396); assay: in vitro MAO.A inhibition on homogenized rat brain, serotonine (5-HT) substrate; format: biochemical, rats; conditions: Table 1, rat brain homogenate, read-out: MAO.A inhibition effect (5-HT) IC 50
# T1 construct: the brains being removed, weighed, homogeneized; from tissue; host or cells: brain of orally dosed rats, homogenized
# T1 sequence (P21396 1-526): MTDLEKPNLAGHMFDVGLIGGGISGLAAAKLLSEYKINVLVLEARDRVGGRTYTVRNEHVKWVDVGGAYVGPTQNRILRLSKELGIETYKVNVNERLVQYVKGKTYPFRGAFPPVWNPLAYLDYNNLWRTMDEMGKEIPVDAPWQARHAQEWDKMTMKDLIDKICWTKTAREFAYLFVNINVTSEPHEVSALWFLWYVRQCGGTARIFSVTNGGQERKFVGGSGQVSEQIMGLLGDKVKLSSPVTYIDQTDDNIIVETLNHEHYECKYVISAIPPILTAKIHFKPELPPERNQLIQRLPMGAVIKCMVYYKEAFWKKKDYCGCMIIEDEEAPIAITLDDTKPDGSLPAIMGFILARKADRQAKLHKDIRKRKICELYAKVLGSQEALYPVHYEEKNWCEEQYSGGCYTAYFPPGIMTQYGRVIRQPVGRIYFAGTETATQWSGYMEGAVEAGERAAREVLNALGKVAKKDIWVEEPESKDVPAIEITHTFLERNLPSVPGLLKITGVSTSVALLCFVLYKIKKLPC
# Source text: (§1) in vitro, on the homogeneized brain of rats, by measuring the dose inhibiting by 50% (IC 50) the activity of monoamine oxidase (MAO) by taking phenylethylamine (PEA) as substrate of type B monoamine oxidase (MAO.B) and serotonine (5-HT) as substrate of type A monoamine oxidase (MAO.A), according to the procedure described by M. STROLIN BENEDETTI et al. in: Monoamine oxidase Basic and Clinical Frontiers, publishers K. KAMISO-E. USDIN-T. NAGATSO-Excepta Medica (1982)-page 209);
# [2] = oral acute toxicity in mice (Miller and Tainter's method); format: in vivo; conditions: mouse, in vivo, mice, oral, read-out: Acute toxicity (mice) LD 50
# Source text: (§2) The results obtained in the in vitro test are shown in table 1 below and the results obtained in the ex vivo test, as well as the oral acute toxicity in mice evaluated according to MILLER and TAINTER's method [Proc. Soc.
# [3] = biological target: T2, type B monoamine oxidase (MAO.B) (Rattus norvegicus, UniProt P19643); assay: ex vivo brain MAO.B inhibition after single oral dose in rats, PEA substrate; conditions: for inhibition at 5 mg/kg / inhibition at 10 mg/kg / inhibition at 20 mg/kg: rat, po; for inhibition at 5 mg/kg: 5 mg/kg p.o.; for specificity and reversibility / level of activity: in words; for specificity and reversibility: compared with racemic; for level of activity: compared with racemic or dose; for inhibition at 10 mg/kg: 10 mg/kg p.o.; for inhibition at 20 mg/kg: 20 mg/kg p.o.
# T2 construct: the brains being removed, weighed, homogeneized; from tissue; host or cells: brain of orally dosed rats, homogenized
# T2 sequence (P19643 1-520): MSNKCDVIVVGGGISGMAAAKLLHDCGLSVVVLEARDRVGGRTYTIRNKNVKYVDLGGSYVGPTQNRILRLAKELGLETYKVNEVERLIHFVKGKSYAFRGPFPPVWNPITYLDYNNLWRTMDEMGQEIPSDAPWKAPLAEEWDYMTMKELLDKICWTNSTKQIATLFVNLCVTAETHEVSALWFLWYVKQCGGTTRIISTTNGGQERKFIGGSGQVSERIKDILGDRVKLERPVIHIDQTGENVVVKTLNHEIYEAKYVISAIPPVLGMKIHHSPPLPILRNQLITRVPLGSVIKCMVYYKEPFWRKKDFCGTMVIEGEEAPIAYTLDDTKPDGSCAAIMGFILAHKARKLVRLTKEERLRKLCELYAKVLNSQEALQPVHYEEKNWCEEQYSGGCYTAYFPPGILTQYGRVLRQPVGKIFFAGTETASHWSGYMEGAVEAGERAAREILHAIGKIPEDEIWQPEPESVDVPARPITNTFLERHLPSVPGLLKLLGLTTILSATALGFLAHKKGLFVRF
# Protocol: (§3) ex vivo, on rats to which was administered orally a single dose of the compounds of formula (I) (or their pharmaceutically acceptable salts) or their corresponding racemic of formula (Io), in a 0.5% suspension in methylcellulose, the rats being sacrificed by being beheaded at varying times, the brains being removed, weighed, homogeneized and the determination of the MAOI activity being made by using serotonine and phenylethylamine, according to the procedure described by J. P. KAN and M. STROLIN-BENEDETTI in Life Sciences 26, 2165, (1980).
# [4] = biological target: T1, type A monoamine oxidase (MAO.A); assay: ex vivo brain MAO.A inhibition after single oral dose in rats, 5-HT substrate; conditions: for inhibition at 10 mg/kg: Table 3, 10 mg/kg p.o.; for inhibition at 20 mg/kg: Table 3, 20 mg/kg p.o.
# Protocol: as §3
# [5] = biological target: T2, type B monoamine oxidase (MAO.B); assay: in vitro MAO.B inhibition on homogenized rat brain, phenylethylamine (PEA) substrate; format: biochemical, rats; conditions: Table 1, rat brain homogenate, read-out: MAO.B inhibition effect (P.E.A.) IC 50
# Source text: as §1
# mice = assay: oral acute toxicity in mice (Miller and Tainter's method); format: in vivo; conditions: in words
# Source text: as §2
# [6] = Table 3, rats, 30, unit inferred, read-out: % MAO inhibition effect after n hour(s), PEA
# [7] = Table 3, rats, 1 hour, read-out: % MAO inhibition effect after n hour(s), PEA
# [8] = Table 3, rats, 2 hours, read-out: % MAO inhibition effect after n hour(s), PEA
# [9] = Table 3, rats, 4 hours, read-out: % MAO inhibition effect after n hour(s), PEA
# [10] = Table 3, rats, 8 hours, read-out: % MAO inhibition effect after n hour(s), PEA
# [11] = Table 3, rats, 24 hours, read-out: % MAO inhibition effect after n hour(s), PEA
# [12] = Table 3, 5 mg/kg p.o., rats, 30, unit inferred, read-out: % MAO inhibition effect after n hour(s), 5-HT
# [13] = Table 3, 5 mg/kg p.o., rats, 1 hour, read-out: % MAO inhibition effect after n hour(s), 5-HT
# [14] = Table 3, 5 mg/kg p.o., rats, 2 hours, read-out: % MAO inhibition effect after n hour(s), 5-HT
# [15] = Table 3, 5 mg/kg p.o., rats, 4 hours, read-out: % MAO inhibition effect after n hour(s), 5-HT
# [16] = Table 3, 5 mg/kg p.o., rats, 8 hours, read-out: % MAO inhibition effect after n hour(s), 5-HT
# [17] = Table 3, 5 mg/kg p.o., rats, 24 hours, read-out: % MAO inhibition effect after n hour(s), 5-HT
# [18] = Table 2, rats, 1 hour, read-out: % MAO inhibition effect after n hour(s), PEA (IMAO.B)
# [19] = Table 2, rats, 2 hours, read-out: % MAO inhibition effect after n hour(s), PEA (IMAO.B)
# [20] = Table 2, rats, 4 hours, read-out: % MAO inhibition effect after n hour(s), PEA (IMAO.B)
# [21] = Table 2, rats, 8 hours, read-out: % MAO inhibition effect after n hour(s), PEA (IMAO.B)
# [22] = Table 2, rats, 24 hours, read-out: % MAO inhibition effect after n hour(s), PEA (IMAO.B)
# [23] = Table 2, rats, 48 hours, read-out: % MAO inhibition effect after n hour(s), PEA (IMAO.B)
# [24] = Table 2, rats, 72 hours, read-out: % MAO inhibition effect after n hour(s), PEA (IMAO.B)
# [25] = Table 2, 5 mg/kg p.o., rats, 1 hour, read-out: % MAO inhibition effect after n hour(s), 5-HT (IMAO.A)
# [26] = Table 2, 5 mg/kg p.o., rats, 2 hours, read-out: % MAO inhibition effect after n hour(s), 5-HT (IMAO.A)
# [27] = Table 2, 5 mg/kg p.o., rats, 4 hours, read-out: % MAO inhibition effect after n hour(s), 5-HT (IMAO.A)
# [28] = Table 2, 5 mg/kg p.o., rats, 8 hours, read-out: % MAO inhibition effect after n hour(s), 5-HT (IMAO.A)
# [29] = Table 2, 5 mg/kg p.o., rats, 24 hours, read-out: % MAO inhibition effect after n hour(s), 5-HT (IMAO.A)
# [30] = Table 2, 5 mg/kg p.o., rats, 48 hours, read-out: % MAO inhibition effect after n hour(s), 5-HT (IMAO.A)
# [31] = Table 2, 5 mg/kg p.o., rats, 72 hours, read-out: % MAO inhibition effect after n hour(s), 5-HT (IMAO.A)
# [32] = rats, 2 hours, read-out: % MAO inhibition effect after n hour(s), 5-HT
# [33] = rats, 8 hours, read-out: % MAO inhibition effect after n hour(s), 5-HT
# [34] = rats, 24 hours, read-out: % MAO inhibition effect after n hour(s), 5-HT
Compound,IC50 [1],LD50 ([2]; Table 3),"inhibition at 5 mg/kg [3, 6]","inhibition at 5 mg/kg [3, 7]","inhibition at 5 mg/kg [3, 8]","inhibition at 5 mg/kg [3, 9]","inhibition at 5 mg/kg [3, 10]","inhibition at 5 mg/kg [3, 11]","inhibition at 5 mg/kg [4, 12]","inhibition at 5 mg/kg [4, 13]","inhibition at 5 mg/kg [4, 14]","inhibition at 5 mg/kg [4, 15]","inhibition at 5 mg/kg [4, 16]","inhibition at 5 mg/kg [4, 17]",IC50 [5],LD50 ([2]; Table 2),"inhibition at 5 mg/kg [3, 18]","inhibition at 5 mg/kg [3, 19]","inhibition at 5 mg/kg [3, 20]","inhibition at 5 mg/kg [3, 21]",also measured
"O=C1OC(CO)CN1c1ccc(OCc2cccc(Cl)c2)cc1 (racemic) [Racemic of (Ia), reference compound]",600 nM,> 1000 mg/kg,79%,78%,79%,68%,47%,1%,21%,18%,20%,9%,0%,2%,20 nM,,,,,,
"CNCC1CN(c2ccc(OCc3cccc(Cl)c3)cc2)C(=O)O1 (racemic) [Racemic of (Ib), reference compound]",14000 nM,,,,,,,,,,,,,,34 nM,> 1000 mg/kg,84%,85%,78%,67%,"inhibition at 5 mg/kg [3, 22]: 31%; inhibition at 5 mg/kg [3, 23]: 29%; inhibition at 5 mg/kg [3, 24]: 21%; inhibition at 5 mg/kg [4, 25]: 7%; inhibition at 5 mg/kg [4, 26]: 8%; inhibition at 5 mg/kg [4, 27]: 10%; inhibition at 5 mg/kg [4, 28]: 8%; inhibition at 5 mg/kg [4, 29]: 1%; inhibition at 5 mg/kg [4, 30]: 1%; inhibition at 5 mg/kg [4, 31]: 1%"
"O=C1O[C@H](CO)CN1c1ccc(OCc2cccc(Cl)c2)cc1 [(Ia), [S(+)] 5-hydroxymethyl 3-p-(meta-chlorobenzyloxy)phenyl oxazolidine-2-one]",9000 nM,> 1000 mg/kg,47%,47%,43%,30%,5%,-5%,3%,3%,2%,3%,0%,-2%,85 nM,,,,,,"active doses relative to lethal 50 doses (mice): activities at doses much less than the lethal 50 doses; specificity and reversibility [3]: much greater specificity; level of activity [3]: activity increases with the dose administered; inhibition at 10 mg/kg [3, 8]: 66%; inhibition at 10 mg/kg [3, 10]: 36%; inhibition at 10 mg/kg [3, 11]: 6%; inhibition at 20 mg/kg [3, 8]: 77%; inhibition at 20 mg/kg [3, 10]: 50%; inhibition at 20 mg/kg [3, 11]: 5%; inhibition at 10 mg/kg [4, 32]: 5%; inhibition at 10 mg/kg [4, 33]: 1%; inhibition at 10 mg/kg [4, 34]: 0%; inhibition at 20 mg/kg [4, 32]: 7%; inhibition at 20 mg/kg [4, 33]: 3%; inhibition at 20 mg/kg [4, 34]: 0%"
"CNC[C@@H]1CN(c2ccc(OCc3cccc(Cl)c3)cc2)C(=O)O1 [(Ib), [R(+)] 5-N-methylaminomethyl 3-p-(meta-chlorobenzyloxy)phenyl oxazolidine-2-one]",50000 nM,,,,,,,,,,,,,,30 nM,> 1000 mg/kg,74%,77%,71%,61%,"active doses relative to lethal 50 doses (mice): activities at doses much less than the lethal 50 doses; specificity and reversibility [3]: much greater specificity and reversibility; level of activity [3]: level of activity similar to that of its racemic; inhibition at 5 mg/kg [3, 22]: 6%; inhibition at 5 mg/kg [3, 23]: 5%; inhibition at 5 mg/kg [3, 24]: 0%; inhibition at 5 mg/kg [4, 25]: -1%; inhibition at 5 mg/kg [4, 26]: 0%; inhibition at 5 mg/kg [4, 27]: 0%; inhibition at 5 mg/kg [4, 28]: 1%; inhibition at 5 mg/kg [4, 29]: -1%; inhibition at 5 mg/kg [4, 30]: -3%; inhibition at 5 mg/kg [4, 31]: 3%"
